Experiments:
[1] = test system: H3K27 methylation in G401 cell; assay: ELISA (H3K27 methylation) assay in G401 cells; format: cell-based, human; settings: read-out: (c) IC50 ELISA Qualified
Experimental: (§1) A 6 μL solution of 3 μM of the peptide substrate H3K27Me0 (histone H3[21-44]-biotin) in reaction buffer was added to initiate each reaction. […] ELISA (H3K27 Methylation) Assay

EED (1-441)-His protein = EED (1-441)-His protein (Homo sapiens (Human), UniProt O75530); assay: EED-H3K27Me3 peptide competition binding assay by AlphaScreen; settings: read-out: (a) IC50 EED Alphascreen binding Qualified
From the text: EED-H3K27Me3 peptide competition binding assay by AlphaScreen (α-screen)

[2] = molecular target: wild type PRC2 (wtPRC2) complex (Homo sapiens (Human), UniProt O75530); assay: EED LC-MS assay; format: biochemical; settings: read-out: (b) IC50 EED LC-MS Qualified
Experimental: as §1

Chain of wild type PRC2 (wtPRC2) complex (O75530 whole entry): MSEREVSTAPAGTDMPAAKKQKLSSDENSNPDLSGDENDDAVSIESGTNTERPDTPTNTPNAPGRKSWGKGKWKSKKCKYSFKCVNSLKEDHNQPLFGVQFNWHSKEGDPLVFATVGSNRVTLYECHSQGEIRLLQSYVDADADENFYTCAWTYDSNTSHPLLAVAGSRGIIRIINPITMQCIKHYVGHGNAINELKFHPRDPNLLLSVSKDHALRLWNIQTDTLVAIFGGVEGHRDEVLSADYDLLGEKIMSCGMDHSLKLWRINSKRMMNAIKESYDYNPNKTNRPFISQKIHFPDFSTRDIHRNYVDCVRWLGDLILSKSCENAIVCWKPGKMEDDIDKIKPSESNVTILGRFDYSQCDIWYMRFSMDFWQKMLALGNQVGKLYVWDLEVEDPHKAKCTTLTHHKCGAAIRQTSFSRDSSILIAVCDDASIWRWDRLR
Chain of wild type PRC2 (wtPRC2) complex (Q15910 whole entry partner): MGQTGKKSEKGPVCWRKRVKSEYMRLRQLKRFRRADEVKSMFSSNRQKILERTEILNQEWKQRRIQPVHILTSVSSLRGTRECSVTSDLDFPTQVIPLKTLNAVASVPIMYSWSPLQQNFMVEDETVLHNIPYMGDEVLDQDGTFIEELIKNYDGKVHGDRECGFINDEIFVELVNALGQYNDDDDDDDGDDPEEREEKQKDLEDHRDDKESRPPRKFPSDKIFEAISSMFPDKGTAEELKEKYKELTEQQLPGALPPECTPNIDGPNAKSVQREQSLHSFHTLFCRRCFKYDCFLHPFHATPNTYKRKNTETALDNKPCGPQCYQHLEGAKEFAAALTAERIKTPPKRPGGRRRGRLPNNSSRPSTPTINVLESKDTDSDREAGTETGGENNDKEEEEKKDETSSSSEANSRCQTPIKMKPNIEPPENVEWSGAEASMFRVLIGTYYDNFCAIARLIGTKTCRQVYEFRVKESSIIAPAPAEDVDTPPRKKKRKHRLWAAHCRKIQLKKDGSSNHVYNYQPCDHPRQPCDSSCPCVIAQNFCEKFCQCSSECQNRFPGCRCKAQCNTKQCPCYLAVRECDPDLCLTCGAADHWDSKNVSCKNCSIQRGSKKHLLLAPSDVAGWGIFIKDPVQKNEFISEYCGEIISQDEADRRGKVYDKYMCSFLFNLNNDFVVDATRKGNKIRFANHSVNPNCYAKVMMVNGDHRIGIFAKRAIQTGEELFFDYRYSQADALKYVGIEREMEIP
Chain of wild type PRC2 (wtPRC2) complex (Q15022 whole entry partner): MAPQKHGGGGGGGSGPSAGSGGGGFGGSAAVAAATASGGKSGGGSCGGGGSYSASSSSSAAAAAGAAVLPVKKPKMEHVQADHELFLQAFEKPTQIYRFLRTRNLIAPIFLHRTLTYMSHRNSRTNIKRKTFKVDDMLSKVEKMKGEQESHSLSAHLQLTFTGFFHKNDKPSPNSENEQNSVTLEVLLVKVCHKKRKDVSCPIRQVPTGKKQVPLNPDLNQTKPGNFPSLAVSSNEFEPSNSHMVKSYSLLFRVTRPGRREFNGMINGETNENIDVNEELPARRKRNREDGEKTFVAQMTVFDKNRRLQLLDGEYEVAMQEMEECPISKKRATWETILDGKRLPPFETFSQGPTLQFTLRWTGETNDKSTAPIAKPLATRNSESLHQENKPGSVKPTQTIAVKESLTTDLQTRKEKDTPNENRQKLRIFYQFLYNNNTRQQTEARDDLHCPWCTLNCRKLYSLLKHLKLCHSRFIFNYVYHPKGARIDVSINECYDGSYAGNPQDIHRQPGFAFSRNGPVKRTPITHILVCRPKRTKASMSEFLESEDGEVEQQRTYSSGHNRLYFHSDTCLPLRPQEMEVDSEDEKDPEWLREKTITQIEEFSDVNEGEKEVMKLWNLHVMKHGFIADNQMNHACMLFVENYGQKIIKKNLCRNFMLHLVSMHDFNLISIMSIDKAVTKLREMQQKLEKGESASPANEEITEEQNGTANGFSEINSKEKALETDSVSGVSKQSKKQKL
Chain of EED (1-441)-His protein (O75530 whole entry): as the sequence (O75530 whole entry) above

Row | SMILES | IC50 [1] [nM] | IC50 (EED (1-441)-His protein) [nM] | IC50 [2] [nM]
1 | Cc1ncccc1-c1cnc(NCc2c(F)ccc3c2CCO3)n2cnnc12 [Example 2, N-((5-fluoro-2,3-dihydrobenzofuran-4-yl)methyl)-8-(2-methylpyridin-3-yl)-[1,2,4]triazolo[4,3-c]pyrimidin-5-amine] | 2.6 | – | –
2 | CCNC(=O)c1ccc(-c2cnc(NCc3cccc4c3CCO4)n3cnnc23)cn1 [Example 114, 5-(5-(((2,3-dihydrobenzofuran-4-yl)methyl)amino)-[1,2,4]triazolo[4,3-c]pyrimidin-8-yl)-N-ethylpicolinamide] | – | 15.4 | 18.6
3 | Cc1nc(S(C)(=O)=O)ccc1-c1cnc(NCc2c(F)ccc3c2CCO3)n2cnnc12 [Example 139, N-((5-fluoro-2,3-dihydrobenzofuran-4-yl)methyl)-8-(2-methyl-6-(methylsulfonyl)pyridin-3-yl)-[1,2,4]triazolo[4,3-c]pyrimidin-5-amine] | – | 1.7 | 6
4 | Fc1ccc2c(c1CNc1ncc(-c3ccc(N4CCOCC4)nc3)c3nncn13)CCO2 [Example 92, N-((5-fluoro-2,3-dihydrobenzofuran-4-yl)methyl)-8-(6-morpholinopyridin-3-yl)-[1,2,4]triazolo[4,3-c]pyrimidin-5-amine] | – | 19.2 | 51.5
5 | COc1cc(C)c(-c2cnc(NCc3c(F)ccc4c3CCO4)n3cnnc23)cn1 [Example 5, N-((5-fluoro-2,3-dihydrobenzofuran-4-yl)methyl)-8-(6-methoxy-4-methylpyridin-3-yl)-[1,2,4]triazolo[4,3-c]pyrimidin-5-amine] | – | 4.8 | 9.7
6 | Fc1ccc2c(c1CNc1ncc(-c3ccc(C4CC4)nc3)c3nncn13)CCO2 [Example 119, 8-(6-cyclopropylpyridin-3-yl)-N-((5-fluoro-2,3-dihydrobenzofuran-4-yl)methyl)-[1,2,4]triazolo[4,3-c]pyrimidin-5-amine] | – | 4 | 6.6
7 | CN1CCN(c2cc(-c3cnc(NCc4cccc5occc45)n4cnnc34)ccn2)CC1 [Example 212, N-(benzofuran-4-ylmethyl)-8-(2-(4-methylpiperazin-1-yl)pyridin-4-yl)-[1,2,4]triazolo[4,3-c]pyrimidin-5-amine] | – | 31.2 | 33.8

Reference: patent publication US9580437B2, “Triazolopyrimidine compounds and uses thereof” (Novartis AG, priority 2014, dated 2017)
